Key:
[1] = molecular target: Mitogen-activated protein kinase 10 (Homo sapiens, UniProt P53779); experiment: Selectivity interaction (KinomeScan (DiscoverX)) EUB0000704a MAPK10; details: at 1 µM
[2] = molecular target: T1, Sodium-dependent dopamine transporter (Homo sapiens, UniProt Q01959); experiment: Selectivity interaction (GPCR panel (PDSP screen)) EUB0000704a SLC6A3
[3] = molecular target: Serine/threonine-protein kinase PLK1 (Homo sapiens, UniProt P53350); experiment: Selectivity interaction (KinomeScan (DiscoverX)) EUB0000704a PLK1; details: at 1 µM
[4] = molecular target: Serine/threonine-protein kinase WNK4 (Homo sapiens) (UniProt Q96J92); experiment: Selectivity interaction (KinomeScan (DiscoverX)) EUB0000704a WNK4; details: at 1 µM
[5] = molecular target: Serine/threonine-protein kinase WNK3 (Homo sapiens) (UniProt Q9BYP7); experiment: Selectivity interaction (KinomeScan (DiscoverX)) EUB0000704a WNK3; details: at 1 µM
Serine/threonine-protein kinase WNK3 (Homo sapiens), sequence (Q9BYP7 whole entry): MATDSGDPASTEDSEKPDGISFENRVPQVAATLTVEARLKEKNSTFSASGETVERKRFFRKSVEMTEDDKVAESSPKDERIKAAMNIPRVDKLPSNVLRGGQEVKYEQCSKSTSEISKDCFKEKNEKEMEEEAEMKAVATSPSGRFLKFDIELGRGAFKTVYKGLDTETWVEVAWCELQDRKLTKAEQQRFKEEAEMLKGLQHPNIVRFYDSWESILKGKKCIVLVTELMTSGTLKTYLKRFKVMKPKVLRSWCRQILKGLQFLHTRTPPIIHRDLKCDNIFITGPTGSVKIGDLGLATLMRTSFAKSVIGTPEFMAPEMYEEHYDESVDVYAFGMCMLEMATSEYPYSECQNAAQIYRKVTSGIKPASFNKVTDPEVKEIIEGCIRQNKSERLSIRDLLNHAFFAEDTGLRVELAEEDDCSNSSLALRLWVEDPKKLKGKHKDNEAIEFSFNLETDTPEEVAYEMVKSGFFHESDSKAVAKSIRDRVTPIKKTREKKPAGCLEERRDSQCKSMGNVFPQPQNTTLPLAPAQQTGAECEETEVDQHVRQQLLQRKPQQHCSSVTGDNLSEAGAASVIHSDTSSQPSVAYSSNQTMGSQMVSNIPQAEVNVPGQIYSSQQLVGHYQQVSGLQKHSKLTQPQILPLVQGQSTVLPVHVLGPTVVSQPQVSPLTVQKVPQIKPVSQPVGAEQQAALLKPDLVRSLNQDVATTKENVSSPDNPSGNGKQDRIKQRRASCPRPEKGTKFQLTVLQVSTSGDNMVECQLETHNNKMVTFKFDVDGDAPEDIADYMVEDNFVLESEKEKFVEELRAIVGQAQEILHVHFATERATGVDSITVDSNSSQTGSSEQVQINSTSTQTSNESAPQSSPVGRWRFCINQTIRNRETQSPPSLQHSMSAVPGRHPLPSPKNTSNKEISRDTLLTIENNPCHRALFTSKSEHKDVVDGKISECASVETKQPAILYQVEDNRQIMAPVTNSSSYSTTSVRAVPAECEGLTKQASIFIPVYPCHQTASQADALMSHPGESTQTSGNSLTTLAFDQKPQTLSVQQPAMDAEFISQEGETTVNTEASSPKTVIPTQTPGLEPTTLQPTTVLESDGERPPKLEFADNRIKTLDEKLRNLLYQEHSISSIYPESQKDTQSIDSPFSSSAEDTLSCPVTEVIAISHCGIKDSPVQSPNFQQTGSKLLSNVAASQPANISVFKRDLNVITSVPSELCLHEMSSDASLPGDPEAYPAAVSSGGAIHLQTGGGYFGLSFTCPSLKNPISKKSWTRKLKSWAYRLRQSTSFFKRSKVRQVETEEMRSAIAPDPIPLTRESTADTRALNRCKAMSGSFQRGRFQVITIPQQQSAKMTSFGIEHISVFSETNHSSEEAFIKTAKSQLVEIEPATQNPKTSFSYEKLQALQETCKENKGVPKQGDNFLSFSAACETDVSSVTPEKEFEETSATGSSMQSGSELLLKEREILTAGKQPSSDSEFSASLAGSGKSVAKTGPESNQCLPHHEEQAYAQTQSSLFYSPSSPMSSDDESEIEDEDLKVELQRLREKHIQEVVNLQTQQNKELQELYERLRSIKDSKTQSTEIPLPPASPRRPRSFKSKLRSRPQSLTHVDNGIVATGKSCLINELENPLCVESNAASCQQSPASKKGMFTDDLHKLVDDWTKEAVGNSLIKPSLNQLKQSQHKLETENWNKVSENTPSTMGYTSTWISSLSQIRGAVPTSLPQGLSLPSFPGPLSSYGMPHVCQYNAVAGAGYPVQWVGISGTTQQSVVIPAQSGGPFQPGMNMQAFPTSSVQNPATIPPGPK

[6] = molecular target: T2, Gamma-aminobutyric acid receptor subunit alpha-1 (Homo sapiens, UniProt P14867); experiment: Selectivity interaction (GPCR panel (PDSP screen)) EUB0000704a GABRA1
T2 sequence (P14867 whole entry): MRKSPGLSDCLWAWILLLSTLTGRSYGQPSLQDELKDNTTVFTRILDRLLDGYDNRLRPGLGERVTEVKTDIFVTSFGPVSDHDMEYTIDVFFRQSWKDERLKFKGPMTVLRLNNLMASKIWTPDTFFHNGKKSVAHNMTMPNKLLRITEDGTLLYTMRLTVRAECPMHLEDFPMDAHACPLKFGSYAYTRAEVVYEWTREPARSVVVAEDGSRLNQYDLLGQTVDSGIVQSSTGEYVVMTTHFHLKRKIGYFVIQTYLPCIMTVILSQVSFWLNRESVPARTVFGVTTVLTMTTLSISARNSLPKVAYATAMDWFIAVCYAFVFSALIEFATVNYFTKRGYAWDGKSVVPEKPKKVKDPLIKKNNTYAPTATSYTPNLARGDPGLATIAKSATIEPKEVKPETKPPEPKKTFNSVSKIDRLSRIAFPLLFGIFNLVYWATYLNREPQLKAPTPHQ

[7] = molecular target: Protein kinase C alpha type (Homo sapiens) (UniProt P17252); experiment: Selectivity interaction (KinomeScan (DiscoverX)) EUB0000704a PRKCA; details: at 1 µM
Histamine H3 receptor = Histamine H3 receptor (Homo sapiens, UniProt Q9Y5N1); experiment: Selectivity interaction (GPCR panel (PDSP screen)) EUB0000714a HRH3
[8] = molecular target: T3, Dual specificity mitogen-activated protein kinase kinase 5 (Homo sapiens) (UniProt Q13163); experiment: Selectivity interaction (KinomeScan (DiscoverX)) EUB0000714a MAP2K5; details: at 100 nM
T3 sequence (whole entry): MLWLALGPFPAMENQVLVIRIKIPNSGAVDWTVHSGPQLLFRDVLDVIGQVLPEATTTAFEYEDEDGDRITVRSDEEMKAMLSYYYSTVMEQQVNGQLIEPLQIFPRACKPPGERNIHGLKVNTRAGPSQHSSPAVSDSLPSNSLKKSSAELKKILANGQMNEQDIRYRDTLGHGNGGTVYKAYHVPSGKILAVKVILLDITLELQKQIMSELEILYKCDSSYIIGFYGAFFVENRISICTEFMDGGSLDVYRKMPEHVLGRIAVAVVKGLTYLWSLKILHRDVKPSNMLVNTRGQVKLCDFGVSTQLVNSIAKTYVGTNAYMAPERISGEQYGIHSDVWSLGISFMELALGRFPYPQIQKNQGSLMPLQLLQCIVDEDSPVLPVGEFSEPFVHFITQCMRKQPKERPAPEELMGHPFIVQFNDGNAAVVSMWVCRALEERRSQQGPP

[9] = molecular target: Dual specificity mitogen-activated protein kinase kinase 3 (Homo sapiens) (UniProt P46734); experiment: Selectivity interaction (KinomeScan (DiscoverX)) EUB0000714a MAP2K3; details: at 100 nM
[10] = molecular target: High affinity nerve growth factor receptor (Homo sapiens, UniProt P04629); experiment: Selectivity interaction (KinomeScan (DiscoverX)) EUB0000714a NTRK1; details: at 100 nM
[11] = molecular target: Phosphatidylinositol 4,5-bisphosphate 3-kinase catalytic subunit alpha isoform (Homo sapiens, UniProt P42336); experiment: Selectivity interaction (KinomeScan (DiscoverX)) EUB0000714a PIK3CA; details: at 100 nM
Adenosine receptor A3 = molecular target: T4, Adenosine receptor A3 (Homo sapiens, UniProt P0DMS8); experiment: Selectivity interaction (Radioligand binding assay (MDS Pharma Service)) EUB0000296b ADORA3
T4 sequence (P0DMS8 whole entry): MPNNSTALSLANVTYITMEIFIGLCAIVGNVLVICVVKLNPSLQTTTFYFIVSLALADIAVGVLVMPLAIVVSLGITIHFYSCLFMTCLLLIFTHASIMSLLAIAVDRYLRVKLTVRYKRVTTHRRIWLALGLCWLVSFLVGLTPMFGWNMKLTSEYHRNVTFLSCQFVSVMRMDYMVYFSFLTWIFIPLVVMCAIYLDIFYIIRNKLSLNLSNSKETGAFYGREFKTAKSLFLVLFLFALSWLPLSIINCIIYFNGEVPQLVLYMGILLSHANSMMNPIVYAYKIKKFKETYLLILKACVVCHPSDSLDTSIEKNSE

[12] = molecular target: T5, Alpha-2C adrenergic receptor (Homo sapiens, UniProt P18825); experiment: Selectivity interaction (Radioligand binding assay (MDS Pharma Service)) EUB0000296b ADRA2C
T5 sequence (P18825 whole entry): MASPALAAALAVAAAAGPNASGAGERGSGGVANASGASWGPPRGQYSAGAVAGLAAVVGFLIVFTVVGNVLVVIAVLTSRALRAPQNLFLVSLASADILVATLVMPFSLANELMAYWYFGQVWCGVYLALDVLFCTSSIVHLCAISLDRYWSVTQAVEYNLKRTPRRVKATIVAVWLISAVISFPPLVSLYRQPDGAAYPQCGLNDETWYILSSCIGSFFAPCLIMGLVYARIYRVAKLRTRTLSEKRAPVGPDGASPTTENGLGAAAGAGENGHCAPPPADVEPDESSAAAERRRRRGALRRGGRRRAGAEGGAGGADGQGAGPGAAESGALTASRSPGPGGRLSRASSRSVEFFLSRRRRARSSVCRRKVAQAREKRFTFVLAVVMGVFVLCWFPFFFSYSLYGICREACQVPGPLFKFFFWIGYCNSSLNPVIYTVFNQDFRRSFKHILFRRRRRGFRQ

[13] = molecular target: Serine/threonine-protein kinase STK11 (Homo sapiens) (UniProt Q15831); experiment: Selectivity interaction (KinomeScan (DiscoverX)) EUB0000296b STK11; details: at 1 µM
[14] = molecular target: Polyunsaturated fatty acid 5-lipoxygenase (Homo sapiens, UniProt P09917); experiment: Selectivity interaction (MSD Pharma/Taiwan screen (enzymes and receptors) ) EUB0000296b ALOX5
[15] = molecular target: Synaptic vesicular amine transporter (Homo sapiens, UniProt Q05940); experiment: Selectivity interaction (Radioligand binding assay (MDS Pharma Service)) EUB0000296b SLC18A2
[16] = molecular target: Dual specificity tyrosine-phosphorylation-regulated kinase 1B (Homo sapiens, UniProt Q9Y463); experiment: Selectivity interaction (KinomeScan (DiscoverX)) EUB0000296b DYRK1B; details: at 1 µM
[17] = molecular target: Mitogen-activated protein kinase 3 (Homo sapiens, UniProt P27361); experiment: Selectivity interaction (MSD Pharma/Taiwan screen (enzymes and receptors) ) EUB0000296b MAPK3
[18] = molecular target: Mitogen-activated protein kinase 14 (Homo sapiens, UniProt Q16539); experiment: Selectivity interaction (MSD Pharma/Taiwan screen (enzymes and receptors) ) EUB0000296b MAPK14
[19] = molecular target: T1, Sodium-dependent dopamine transporter; experiment: Selectivity interaction (Radioligand binding assay (MDS Pharma Service)) EUB0000296b SLC6A3
[20] = molecular target: eIF-2-alpha kinase GCN2 (Homo sapiens) (UniProt Q9P2K8); experiment: Selectivity interaction (KinomeScan (DiscoverX)) EUB0000296b EIF2AK4; details: at 1 µM
[21] = molecular target: Phosphatidylinositol 4-phosphate 3-kinase C2 domain-containing subunit beta (Homo sapiens) (UniProt O00750); experiment: Selectivity interaction (KinomeScan (DiscoverX)) EUB0000296b PIK3C2B; details: at 1 µM
Phosphatidylinositol 4-phosphate 3-kinase C2 domain-containing subunit beta (Homo sapiens), sequence (O00750 whole entry, the tested form may be a part): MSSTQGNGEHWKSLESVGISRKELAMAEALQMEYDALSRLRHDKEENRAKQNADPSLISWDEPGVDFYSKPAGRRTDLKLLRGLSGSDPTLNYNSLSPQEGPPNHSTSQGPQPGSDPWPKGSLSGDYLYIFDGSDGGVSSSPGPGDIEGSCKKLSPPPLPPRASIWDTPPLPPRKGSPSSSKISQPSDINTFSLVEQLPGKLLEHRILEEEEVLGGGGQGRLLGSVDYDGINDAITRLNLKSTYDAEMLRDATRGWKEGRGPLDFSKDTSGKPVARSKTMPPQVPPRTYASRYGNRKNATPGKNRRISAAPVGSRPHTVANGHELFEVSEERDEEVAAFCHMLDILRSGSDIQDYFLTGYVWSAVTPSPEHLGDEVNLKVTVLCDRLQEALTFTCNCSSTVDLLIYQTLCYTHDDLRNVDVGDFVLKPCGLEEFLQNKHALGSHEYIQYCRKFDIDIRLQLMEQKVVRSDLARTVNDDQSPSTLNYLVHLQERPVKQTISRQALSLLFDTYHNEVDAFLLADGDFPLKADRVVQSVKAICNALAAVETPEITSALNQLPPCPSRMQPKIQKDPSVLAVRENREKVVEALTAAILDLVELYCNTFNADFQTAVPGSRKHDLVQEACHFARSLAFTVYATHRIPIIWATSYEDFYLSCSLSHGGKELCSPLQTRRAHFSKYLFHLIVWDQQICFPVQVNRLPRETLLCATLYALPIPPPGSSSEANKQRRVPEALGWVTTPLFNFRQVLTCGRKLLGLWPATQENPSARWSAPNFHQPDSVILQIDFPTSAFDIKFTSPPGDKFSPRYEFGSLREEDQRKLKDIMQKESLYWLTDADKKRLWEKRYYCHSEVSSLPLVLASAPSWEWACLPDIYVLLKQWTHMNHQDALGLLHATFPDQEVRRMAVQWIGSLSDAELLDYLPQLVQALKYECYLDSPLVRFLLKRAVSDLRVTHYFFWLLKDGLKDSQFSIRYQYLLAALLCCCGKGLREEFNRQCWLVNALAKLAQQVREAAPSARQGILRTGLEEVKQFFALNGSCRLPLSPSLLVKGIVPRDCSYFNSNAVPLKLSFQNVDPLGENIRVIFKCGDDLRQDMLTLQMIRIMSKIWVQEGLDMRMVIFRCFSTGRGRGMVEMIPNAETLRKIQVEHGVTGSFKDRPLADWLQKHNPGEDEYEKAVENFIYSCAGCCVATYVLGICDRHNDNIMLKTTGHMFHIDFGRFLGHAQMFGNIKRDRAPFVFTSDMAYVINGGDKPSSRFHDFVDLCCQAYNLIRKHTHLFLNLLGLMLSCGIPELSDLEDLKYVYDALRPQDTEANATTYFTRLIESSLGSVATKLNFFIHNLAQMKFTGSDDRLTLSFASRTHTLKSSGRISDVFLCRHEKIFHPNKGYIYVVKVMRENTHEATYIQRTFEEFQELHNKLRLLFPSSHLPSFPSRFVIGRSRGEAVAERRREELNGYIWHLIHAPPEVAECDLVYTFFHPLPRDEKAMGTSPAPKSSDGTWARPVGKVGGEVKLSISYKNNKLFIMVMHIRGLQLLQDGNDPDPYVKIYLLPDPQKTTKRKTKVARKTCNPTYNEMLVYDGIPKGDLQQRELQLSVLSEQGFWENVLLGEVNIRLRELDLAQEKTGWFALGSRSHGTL

[22] = molecular target: T2, Gamma-aminobutyric acid receptor subunit alpha-1; experiment: Selectivity interaction (GPCR panel (PDSP screen)) EUB0000296b GABRA1
[23] = molecular target: Epidermal growth factor receptor (Homo sapiens, UniProt P00533); experiment: Selectivity interaction (MSD Pharma/Taiwan screen (enzymes and receptors) ) EUB0000296b EGFR
[24] = molecular target: Protein kinase C epsilon type (Homo sapiens) (UniProt Q02156); experiment: Selectivity interaction (KinomeScan (DiscoverX)) EUB0000296b PRKCE; details: at 1 µM
Protein kinase C epsilon type (Homo sapiens), sequence (Q02156 whole entry): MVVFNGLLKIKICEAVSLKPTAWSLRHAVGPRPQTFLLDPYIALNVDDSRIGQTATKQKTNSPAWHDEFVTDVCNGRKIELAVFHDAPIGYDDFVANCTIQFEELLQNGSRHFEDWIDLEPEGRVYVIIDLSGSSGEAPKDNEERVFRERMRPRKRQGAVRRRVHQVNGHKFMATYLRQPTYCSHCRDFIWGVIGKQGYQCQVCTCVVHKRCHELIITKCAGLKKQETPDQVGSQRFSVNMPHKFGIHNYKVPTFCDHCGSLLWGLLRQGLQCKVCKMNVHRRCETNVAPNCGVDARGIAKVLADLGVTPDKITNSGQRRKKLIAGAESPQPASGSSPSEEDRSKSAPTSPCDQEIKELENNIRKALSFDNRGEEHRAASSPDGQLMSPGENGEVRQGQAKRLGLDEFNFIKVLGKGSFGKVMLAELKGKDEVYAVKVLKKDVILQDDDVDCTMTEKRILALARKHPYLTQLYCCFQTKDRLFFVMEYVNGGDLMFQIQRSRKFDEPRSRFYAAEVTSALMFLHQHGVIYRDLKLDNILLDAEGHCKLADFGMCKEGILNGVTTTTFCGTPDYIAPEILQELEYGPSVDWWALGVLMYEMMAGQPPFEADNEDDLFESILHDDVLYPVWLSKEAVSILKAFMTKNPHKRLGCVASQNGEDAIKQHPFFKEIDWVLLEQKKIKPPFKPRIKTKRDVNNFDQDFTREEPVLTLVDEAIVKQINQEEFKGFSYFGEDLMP

[25] = molecular target: 5-hydroxytryptamine receptor 7 (Homo sapiens, UniProt P34969); experiment: Selectivity interaction (GPCR panel (PDSP screen)) EUB0000252b HTR7
[26] = molecular target: T5, Alpha-2C adrenergic receptor; experiment: Selectivity interaction (GPCR panel (PDSP screen)) EUB0000316b ADRA2C
[27] = molecular target: Cyclin-dependent kinase 4 (Homo sapiens) (UniProt P11802); experiment: Selectivity interaction (KinomeScan (DiscoverX)) EUB0000316b CDK4; details: at 1 µM
Cyclin-dependent kinase 4 (Homo sapiens), sequence (P11802 whole entry): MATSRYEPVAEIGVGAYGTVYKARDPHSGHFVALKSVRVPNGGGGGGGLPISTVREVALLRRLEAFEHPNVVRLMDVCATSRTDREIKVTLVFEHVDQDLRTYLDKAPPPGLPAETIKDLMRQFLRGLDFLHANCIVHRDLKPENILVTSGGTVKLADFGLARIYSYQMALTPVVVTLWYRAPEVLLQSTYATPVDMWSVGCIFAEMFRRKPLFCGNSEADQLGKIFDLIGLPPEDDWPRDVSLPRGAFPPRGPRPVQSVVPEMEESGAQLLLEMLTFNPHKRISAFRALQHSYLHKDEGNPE

[28] = molecular target: Mitogen-activated protein kinase 8 (Homo sapiens, UniProt P45983); experiment: Selectivity interaction (KinomeScan (DiscoverX)) EUB0000316b MAPK8; details: at 1 µM
[29] = molecular target: Serine/threonine-protein kinase WNK2 (Homo sapiens) (UniProt Q9Y3S1); experiment: Selectivity interaction (KinomeScan (DiscoverX)) EUB0000316b WNK2; details: at 1 µM
[30] = molecular target: T2, Gamma-aminobutyric acid receptor subunit alpha-1; experiment: Selectivity interaction (GPCR panel (PDSP screen)) EUB0000316b GABRA1
[31] = molecular target: Mitogen-activated protein kinase kinase kinase 14 (Homo sapiens) (UniProt Q99558); experiment: Selectivity interaction (KinomeScan (DiscoverX)) EUB0000316b MAP3K14; details: at 1 µM
[32] = molecular target: T6, Receptor-interacting serine/threonine-protein kinase 4 (Homo sapiens) (UniProt P57078); experiment: Selectivity interaction (KinomeScan (DiscoverX)) EUB0000316b RIPK4; details: at 1 µM
T6 sequence (whole entry): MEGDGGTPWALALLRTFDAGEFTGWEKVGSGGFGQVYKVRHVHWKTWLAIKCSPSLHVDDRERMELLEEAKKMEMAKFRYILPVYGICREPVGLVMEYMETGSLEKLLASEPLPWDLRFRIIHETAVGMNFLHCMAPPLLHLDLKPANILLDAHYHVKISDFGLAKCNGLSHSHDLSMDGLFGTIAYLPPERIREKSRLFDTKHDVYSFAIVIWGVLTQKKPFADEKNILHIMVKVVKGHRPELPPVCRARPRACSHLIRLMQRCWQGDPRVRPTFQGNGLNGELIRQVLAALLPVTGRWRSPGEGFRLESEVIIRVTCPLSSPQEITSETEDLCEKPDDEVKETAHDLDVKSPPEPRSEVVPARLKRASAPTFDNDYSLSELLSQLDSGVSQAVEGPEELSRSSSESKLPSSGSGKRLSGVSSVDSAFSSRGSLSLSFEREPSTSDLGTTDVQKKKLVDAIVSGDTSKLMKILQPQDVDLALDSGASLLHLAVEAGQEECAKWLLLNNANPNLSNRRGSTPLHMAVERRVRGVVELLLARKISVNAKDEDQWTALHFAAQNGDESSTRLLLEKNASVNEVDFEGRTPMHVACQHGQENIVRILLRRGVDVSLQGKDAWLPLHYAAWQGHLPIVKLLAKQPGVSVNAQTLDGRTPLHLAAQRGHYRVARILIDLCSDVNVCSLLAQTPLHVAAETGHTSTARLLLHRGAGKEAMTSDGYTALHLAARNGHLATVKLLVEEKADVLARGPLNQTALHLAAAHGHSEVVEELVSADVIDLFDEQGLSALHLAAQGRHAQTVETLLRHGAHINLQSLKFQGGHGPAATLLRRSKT

T1 sequence (Q01959 whole entry): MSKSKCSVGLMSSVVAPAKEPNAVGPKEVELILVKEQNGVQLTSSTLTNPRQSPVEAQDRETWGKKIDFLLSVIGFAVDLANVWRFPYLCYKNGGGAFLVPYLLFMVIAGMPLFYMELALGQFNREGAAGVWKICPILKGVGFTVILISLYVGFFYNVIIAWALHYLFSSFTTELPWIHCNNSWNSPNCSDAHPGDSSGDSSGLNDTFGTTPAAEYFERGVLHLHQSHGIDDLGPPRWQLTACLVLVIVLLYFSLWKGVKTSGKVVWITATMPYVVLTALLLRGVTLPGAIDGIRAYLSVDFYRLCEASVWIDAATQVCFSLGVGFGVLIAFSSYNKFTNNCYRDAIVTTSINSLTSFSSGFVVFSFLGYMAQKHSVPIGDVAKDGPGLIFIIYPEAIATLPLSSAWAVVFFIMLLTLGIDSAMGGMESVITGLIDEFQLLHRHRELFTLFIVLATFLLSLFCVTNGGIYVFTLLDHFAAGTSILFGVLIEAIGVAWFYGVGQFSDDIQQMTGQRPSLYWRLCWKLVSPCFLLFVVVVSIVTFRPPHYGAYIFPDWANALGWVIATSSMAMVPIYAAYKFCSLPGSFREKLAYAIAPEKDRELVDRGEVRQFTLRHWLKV

## Cc1ccc(-c2cnc([C@@]3(O)CC[C@H](C(=O)O)C(C)(C)C3)s2)cc1Nc1cccc(C(F)(F)F)n1 [MRL-SYKi-NC]
[1]
  % of control: 38%
[2]
  Ki: > 10000 nM
[3]
  % of control: 20%
[4]
  % of control: 32%
[5]
  % of control: 0%
[6]
  Ki: 774 nM
[7]
  % of control: 33%

## Cc1cc(Nc2nccc(C)n2)cc(-c2cnc([C@@]3(O)CC[C@H](C(=O)O)C(C)(C)C3)s2)c1 [MRL-SYKi]
Histamine H3 receptor
  Ki: > 10000 nM
[8]
  % of control: 25.2%
[9]
  % of control: 29.5%
[10]
  % of control: 30.2%
[11]
  % of control: 14.7%

## CC(=O)Nc1c(C(C)=O)c(=O)n(C)c2nc(-c3ccc(Cl)cc3Cl)c(-c3ccc(Cl)cc3)cc12 [NAPHTHYRIDINONE]
Adenosine receptor A3
  Ki: 773 nM
[12]
  Ki: 1130 nM
[13]
  % of control: 43%
[14]
  IC50: 1340 nM
[15]
  Ki: 648 nM
[16]
  % of control: 35%
[17]
  IC50: 8610 nM
[18]
  IC50: 3680 nM
[19]
  Ki: 799 nM
[20]
  % of control: 48%
[21]
  % of control: 48%
[22]
  Ki: 82 nM
[23]
  IC50: 3260 nM
[24]
  % of control: 48%

## N#CC1(c2ccccn2)CCN(Cc2cc(C(=O)O)c(=O)n3ccccc23)CC1 [MSD-M1PAM]
[25]
  Ki: > 10000 nM

## CC(=O)c1c(NS(C)(=O)=O)c2cc(-c3ccc(Cl)cc3)c(-c3ccc(Cl)cc3Cl)nc2n(C)c1=O [MRL-CB1-NC]
[26]
  Ki: > 10000 nM
[27]
  % of control: 63%
[28]
  % of control: 63%
[29]
  % of control: 62%
[30]
  Ki: 1670 nM
[31]
  % of control: 63%
[32]
  % of control: 61%

— ChEMBL document CHEMBL5212743, “Selectivity Literature for EUbOPEN Chemogenomics Library wave 3” (2023)
